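Cultured in 96-well plates, cells were exposed to test compound for 48 hours across five concentrations. Here, GI50 denotes the concentration required for 50% inhibition of growth.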 Activity calls are given as the source filed them. Rule as the data show it: active = GI50 up to about 1.1 µM and inactive = higher.
Tests used:
Assay in all cases: growth of human tumour cells (NCI), 48 h
[1] = system: 786-0
[2] = system: CAKI-1
[3] = system: CCRF-CEM
[4] = system: DU-145
[5] = system: HCT-15
[6] = system: HOP-62
[7] = system: HT-29
[8] = system: MDA-MB-231
[9] = system: MDA-MB-435
[10] = system: MOLT-4
[11] = system: NCI-H226
[12] = system: NCI/ADR-RES
[13] = system: OVCAR-4
[14] = system: RXF 393
[15] = system: SF-539
[16] = system: SNB-19
[17] = system: SNB-75
[18] = system: SR

Row | SMILES | GI50 [1] | GI50 [2] | GI50 [3] | GI50 [4] | GI50 [5] [µM] | GI50 [6] | GI50 [7] | GI50 [8] | GI50 [9] | GI50 [10] | GI50 [11] | GI50 [12] | GI50 [13] | GI50 [14] | GI50 [15] | GI50 [16] | GI50 [17] | GI50 [18]
1 | CO[C@H]1[C@@H](O)[C@@H](O)O[C@@H](O[C@H]2CC[C@@]3(C)[C@H](CC[C@@H]4[C@@H]3[C@H](O)C[C@]3(C)[C@@H](C5=CC(=O)OC5)CC[C@]43O)C2)[C@@H]1O | 0.296 µM (active) | 0.111 µM (active) | 0.23 µM (active) | 0.0946 µM (active) | 0.281 | 0.124 µM (active) | 0.435 µM (active) | 0.649 µM (active) | 0.28 µM (active) | 0.0304 µM (active) | 0.69 µM (active) | 0.222 µM (active) | 0.192 µM (active) | 0.056 µM (active) | 0.08 µM (active) | 0.692 µM (active) | 0.354 µM (active) | 0.21 µM (active)
2 | O=c1c2cc([N+](=O)[O-])ccc2n2n1Cc1ccccc1C2 | > 100 µM (inactive) | 75 µM (inactive) | > 100 µM (inactive) | > 100 µM (inactive) | > 100 | > 100 µM (inactive) | > 100 µM (inactive) | > 100 µM (inactive) | > 100 µM (inactive) | 35.8 µM (inactive) | > 100 µM (inactive) | 73.6 µM (inactive) | > 100 µM (inactive) | > 100 µM (inactive) | > 100 µM (inactive) | > 100 µM (inactive) | > 100 µM (inactive) | 87.3 µM (inactive)
3 | COc1cc2c(cc1O)NC(=O)[C@@H]1C[C@@H](O)CN1C2=O | 52 µM (inactive) | 78 µM (inactive) | 28.4 µM (inactive) | > 100 µM (inactive) | 50.7 | 27.4 µM (inactive) | 72.6 µM (inactive) | > 100 µM (inactive) | 91.6 µM (inactive) | 37.6 µM (inactive) | > 100 µM (inactive) | 11.4 µM (inactive) | > 100 µM (inactive) | > 100 µM (inactive) | 43.8 µM (inactive) | > 100 µM (inactive) | > 100 µM (inactive) | 39.9 µM (inactive)
4 | CN(C)c1ccc(C2CC(c3ccc4ccccc4c3O)=NN2)cc1 (centres undefined) | 21.9 µM (inactive) | 40.6 µM (inactive) | 17.9 µM (inactive) | 50.4 µM (inactive) | 44 | 31 µM (inactive) | 34.4 µM (inactive) | 50 µM (inactive) | 30.4 µM (inactive) | 20.3 µM (inactive) | 41.5 µM (inactive) | 30.3 µM (inactive) | 94.4 µM (inactive) | 36.1 µM (inactive) | 24.5 µM (inactive) | – | 37 µM (inactive) | 14.1 µM (inactive)
5 | COc1cc(S(=O)(=O)Nc2nc(-c3ccc(N4C(=O)C(CC(=O)O)SC4c4ccccc4O)cc3)cs2)ccc1Cl (centres undefined) | > 100 µM (inactive) | > 100 µM (inactive) | – | > 100 µM (inactive) | 47.5 | 90.4 µM (inactive) | 90.8 µM (inactive) | > 100 µM (inactive) | 87.5 µM (inactive) | 49.5 µM (inactive) | 61.4 µM (inactive) | > 100 µM (inactive) | 34.3 µM (inactive) | 61.2 µM (inactive) | > 100 µM (inactive) | > 100 µM (inactive) | > 100 µM (inactive) | 99.8 µM (inactive)
6 | c1ccc2c(c1)c(N1CCCCC1)cc1nc3c(cc(N4CCCCC4)c4ccccc43)nc12 | > 100 µM (inactive) | > 100 µM (inactive) | > 100 µM (inactive) | > 100 µM (inactive) | > 100 | > 100 µM (inactive) | > 100 µM (inactive) | > 100 µM (inactive) | > 100 µM (inactive) | > 100 µM (inactive) | > 100 µM (inactive) | > 100 µM (inactive) | > 100 µM (inactive) | > 100 µM (inactive) | > 100 µM (inactive) | > 100 µM (inactive) | 11.9 µM (inactive) | > 100 µM (inactive)
7 | CNc1ccc(C(=O)CC(O)CCC(C)C2OC(=O)CC(O)CC(=O)CC(O)CC(O)CC(O)CC(O)CC3(O)CC(O)C(C(=O)NCCN(C)C)C(CC(OC4OC(C)C(O)C(NC(=O)CN5CCN(C)CC5)C4O)\C=C/C=C\C=C/C=C/C=C/C=C\C=C/C2C)O3)cc1 (centres undefined) | 12.9 µM (inactive) | > 100 µM (inactive) | – | 3.22 µM (inactive) | 6.18 | 25.6 µM (inactive) | 3.85 µM (inactive) | 81.7 µM (inactive) | 14.9 µM (inactive) | 4.48 µM (inactive) | > 100 µM (inactive) | 6.9 µM (inactive) | 14 µM (inactive) | > 100 µM (inactive) | 37.7 µM (inactive) | 3.38 µM (inactive) | > 100 µM (inactive) | 2.48 µM (inactive)
8 | Cc1ccc([N+](=O)[O-])cc1S(=O)(=O)Nc1ccc(C2=NN(C(=O)c3ccccc3)C(c3ccccc3)C2)cc1 (centres undefined) | 17.4 µM (inactive) | 20 µM (inactive) | 24.9 µM (inactive) | 34 µM (inactive) | 19.5 | 15.9 µM (inactive) | 24.9 µM (inactive) | 15.5 µM (inactive) | 21.2 µM (inactive) | 15.5 µM (inactive) | 15.5 µM (inactive) | 30.4 µM (inactive) | 18.2 µM (inactive) | 12.1 µM (inactive) | 16.6 µM (inactive) | 29.1 µM (inactive) | 16.9 µM (inactive) | 26.4 µM (inactive)
9 | C=CCC1CC(n2cc(C)c(=O)[nH]c2=O)OC1CO[Si](C)(C)C(C)(C)C (centres undefined) | 15.2 µM (inactive) | 13.7 µM (inactive) | 12.1 µM (inactive) | 13.5 µM (inactive) | 15.3 | 18.3 µM (inactive) | 15.9 µM (inactive) | 13.7 µM (inactive) | 13.4 µM (inactive) | – | 13.2 µM (inactive) | 15.1 µM (inactive) | 12.1 µM (inactive) | 4.06 µM (inactive) | 13.8 µM (inactive) | 16.2 µM (inactive) | 11.8 µM (inactive) | 0.0925 µM (active)
10 | CCOC(=O)C(NS(=O)(=O)c1ccccc1)(C(F)(F)F)P(=O)(OCC(C)C)OCC(C)C (centres undefined) | > 100 µM (inactive) | > 100 µM (inactive) | > 100 µM (inactive) | > 100 µM (inactive) | > 100 | > 100 µM (inactive) | > 100 µM (inactive) | > 100 µM (inactive) | > 100 µM (inactive) | > 100 µM (inactive) | > 100 µM (inactive) | > 100 µM (inactive) | > 100 µM (inactive) | > 100 µM (inactive) | > 100 µM (inactive) | > 100 µM (inactive) | > 100 µM (inactive) | > 100 µM (inactive)
11 | Cc1cc(C)c(P2C(=C(O[Si](C(C)C)(C(C)C)C(C)C)C(C)(C)C)C2(c2ccccc2)c2ccccc2)c(C)c1 (centres undefined) | > 100 µM (inactive) | > 100 µM (inactive) | > 100 µM (inactive) | > 100 µM (inactive) | > 100 | > 100 µM (inactive) | > 100 µM (inactive) | > 100 µM (inactive) | > 100 µM (inactive) | > 100 µM (inactive) | > 100 µM (inactive) | > 100 µM (inactive) | > 100 µM (inactive) | > 100 µM (inactive) | > 100 µM (inactive) | > 100 µM (inactive) | 88.1 µM (inactive) | 86.3 µM (inactive)
12 | CN(C)/C=N/n1c2ccccc2c2ccccc21 | > 100 µM (inactive) | 3.64 µM (inactive) | > 100 µM (inactive) | > 100 µM (inactive) | > 100 | > 100 µM (inactive) | > 100 µM (inactive) | > 100 µM (inactive) | > 100 µM (inactive) | 69.8 µM (inactive) | > 100 µM (inactive) | > 100 µM (inactive) | > 100 µM (inactive) | > 100 µM (inactive) | > 100 µM (inactive) | > 100 µM (inactive) | 71.1 µM (inactive) | > 100 µM (inactive)
13 | c1ccc(Nc2nn3c(CCCCCCCCc4nnc5sc(Nc6ccccc6)nn45)nnc3s2)cc1 | 23.4 µM (inactive) | 29 µM (inactive) | 20.4 µM (inactive) | 47.8 µM (inactive) | 36.5 | 38.5 µM (inactive) | 21.9 µM (inactive) | 28.7 µM (inactive) | 25.4 µM (inactive) | 14.7 µM (inactive) | 40.9 µM (inactive) | 26.6 µM (inactive) | 21.8 µM (inactive) | 41.6 µM (inactive) | 56.5 µM (inactive) | 26 µM (inactive) | 22.4 µM (inactive) | 13.3 µM (inactive)
14 | COC(=O)[C@H]1[C@H](OC(=O)[C@@H](OC)c2ccccc2)ON2CC[C@@H](OC(=O)c3ccccc3)[C@H]12 | 43 µM (inactive) | 45.2 µM (inactive) | > 100 µM (inactive) | > 100 µM (inactive) | > 100 | 35.1 µM (inactive) | 51.3 µM (inactive) | 74.3 µM (inactive) | > 100 µM (inactive) | > 100 µM (inactive) | > 100 µM (inactive) | > 100 µM (inactive) | > 100 µM (inactive) | 64.4 µM (inactive) | – | > 100 µM (inactive) | 29 µM (inactive) | > 100 µM (inactive)
15 | c1ccc2[nH]c3nc4ccccc4c-3cc2c1 | 0.0199 µM (active) | 0.524 µM (active) | 0.197 µM (active) | 1.26 µM (inactive) | 0.229 | – | < 0.0303 µM (active) | 1.24 µM (inactive) | 0.54 µM (active) | 0.0942 µM (active) | 1.02 µM (active) | 1.28 µM (inactive) | 1.03 µM (active) | 0.457 µM (active) | 0.367 µM (active) | 0.785 µM (active) | 2.1 µM (inactive) | 0.0441 µM (active)

From ChEMBL document CHEMBL1201862, “PubChem BioAssay data set” (2004)
